Test results from the supplement of paper PMC10307832.

Key:
Test in all cases: relative viability (nuclei count vs DMSO), 5 days (fraction); higher = more cells survive
[1] = compound: CN(c1ncccc1CNc1nc(Nc2ccc3c(c2)CC(=O)N3)ncc1C(F)(F)F)S(C)(=O)=O + CC(=O)Nc1cccc(-n2c(=O)n(C3CC3)c(=O)c3c(Nc4ccc(I)cc4F)n(C)c(=O)c(C)c32)c1 [Trametinib] (partner 0.02 µM)
In short: (§1)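 A single step with final 0.05% Triton X-100, 1% formaldehyde and 1 ug/ml Hoechst fixed the cells and stained nuclei 5 days after treatment. Lung cancer cell lines in 1536-well plates had been treated by pin tool the day after seeding with one drug alone or a fixed anchor-drug dose plus five library-drug doses (not always all listed) in √10 steps, and nuclei were counted on 4× images. Relative viability is the ratio of nuclei in treated wells to nuclei in vehicle wells, taken as the median of duplicate plates.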

[2] = compound: CN(c1ncccc1CNc1nc(Nc2ccc3c(c2)CC(=O)N3)ncc1C(F)(F)F)S(C)(=O)=O + N=C(N)NC(=N)NCCc1ccccc1 [Phenformin] (partner 250 µM)
In short: as §1

[3] = compound: CN(c1ncccc1CNc1nc(Nc2ccc3c(c2)CC(=O)N3)ncc1C(F)(F)F)S(C)(=O)=O + COc1cccc2cc(-c3nc([C@H]4CC[C@H](C(=O)O)CC4)n4ncnc(N)c34)[nH]c12 [OSI-027] (partner 0.5 µM)
In short: as §1

[4] = compound: CN(c1ncccc1CNc1nc(Nc2ccc3c(c2)CC(=O)N3)ncc1C(F)(F)F)S(C)(=O)=O
In short: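 Nuclei counted with MetaXpress define viability as the ratio of treated to vehicle wells, given as a median across plates. The lung cancer cell lines were in 1536-well plates, pinned with five √10-spaced library-drug doses and imaged at 4× after 5 days and Hoechst staining. Plates passed with control CV below 25% and at least one doubling.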

Cell Line | relative viability ([1]; first compound 0.01 µM) | relative viability ([1]; first compound 0.03162 µM) | relative viability ([1]; first compound 0.1 µM) | relative viability ([1]; first compound 0.3162 µM) | relative viability ([1]; first compound 1 µM) | relative viability ([2]; first compound 0.01 µM) | relative viability ([2]; first compound 0.03162 µM) | relative viability ([2]; first compound 0.1 µM) | relative viability ([2]; first compound 0.3162 µM) | relative viability ([2]; first compound 1 µM) | relative viability ([3]; first compound 0.01 µM) | relative viability ([3]; first compound 0.03162 µM) | relative viability ([3]; first compound 0.1 µM) | relative viability ([3]; first compound 0.3162 µM) | relative viability ([3]; first compound 1 µM) | relative viability ([4]; 0.01 µM) | relative viability ([4]; 0.03162 µM) | relative viability ([4]; 0.1 µM) | relative viability ([4]; 0.3162 µM) | relative viability ([4]; 1 µM)
NCI-H1666 | 0.902 | 0.853 | 0.762 | 0.838 | 0.658 | 0.524 | 0.621 | 0.514 | 0.508 | 0.384 | 0.779 | 0.841 | 0.792 | 0.695 | 0.556 | 1.01 | 0.953 | 0.965 | 0.818 | 0.719
NCI-H1734 | 0.602 | 0.661 | 0.663 | 0.719 | 0.539 | 0.395 | 0.395 | 0.375 | 0.4 | 0.415 | 0.581 | 0.612 | 0.534 | 0.609 | 0.545 | 0.985 | 1.04 | 0.947 | 1.02 | 0.953
NCI-H1755 | 0.766 | 0.833 | 0.786 | 0.758 | 0.733 | 0.666 | 0.615 | 0.589 | 0.585 | 0.574 | 0.708 | 0.789 | 0.737 | 0.678 | 0.699 | 1.05 | 1.05 | 0.956 | 0.922 | 0.938
NCI-H1792 | 0.407 | 0.632 | 0.433 | 0.594 | 0.42 | 0.258 | 0.297 | – | 0.281 | 0.489 | 0.787 | 0.892 | 0.736 | 0.697 | 0.688 | 0.925 | 0.983 | 0.888 | 0.975 | 0.992
NCI-H1793 | 0.473 | 0.4 | 0.419 | 0.519 | 0.567 | 0.398 | 0.384 | 0.403 | 0.247 | 0.197 | 0.238 | 0.276 | 0.246 | 0.288 | 0.297 | 0.877 | 1.07 | 0.928 | 0.857 | 0.786
NCI-H1915 | 0.288 | 0.293 | 0.293 | 0.315 | 0.29 | 0.386 | 0.379 | 0.365 | 0.368 | 0.36 | 0.639 | 0.625 | 0.607 | 0.684 | 0.615 | 0.992 | 1 | 0.965 | 0.995 | 0.991
NCI-H1944 | 0.412 | 0.45 | 0.39 | 0.449 | 0.412 | 0.22 | 0.201 | 0.193 | 0.19 | 0.216 | 0.401 | 0.445 | 0.38 | 0.453 | 0.439 | 0.993 | 0.983 | 1 | 1.02 | 1.06
NCI-H1975 | 0.358 | 0.348 | 0.461 | 0.342 | 0.315 | 0.386 | 0.41 | 0.377 | 0.392 | 0.311 | 0.747 | 0.675 | 0.796 | 0.694 | 0.615 | 1.01 | 0.964 | 0.927 | 0.931 | 0.95
NCI-H1993 | 0.481 | 0.547 | 0.669 | 0.409 | 0.585 | 0.511 | 0.543 | 0.448 | 0.468 | 0.452 | 0.456 | 0.508 | 0.5 | 0.541 | 0.525 | 0.855 | 0.99 | 0.855 | 0.925 | 0.821
NCI-H2009 | 0.25 | 0.263 | 0.246 | 0.29 | 0.286 | 0.525 | 0.483 | 0.502 | 0.413 | 0.504 | 0.714 | 0.617 | 0.607 | 0.663 | 0.671 | 1.07 | 1.03 | 0.965 | 0.961 | 0.982
NCI-H2023 | 0.52 | 0.539 | 0.6 | 0.426 | 0.52 | 0.451 | 0.45 | 0.416 | 0.314 | 0.408 | 0.412 | 0.464 | 0.404 | 0.425 | 0.393 | 1.06 | 1.19 | 0.787 | 0.797 | 0.892
NCI-H2085 | 0.564 | 0.461 | 0.551 | 0.619 | 0.471 | 0.743 | 0.781 | 0.644 | 0.775 | 0.627 | 0.77 | 0.907 | 0.735 | 0.734 | 0.749 | 0.989 | 1.04 | 0.947 | 0.948 | 0.9
NCI-H2087 | 0.137 | 0.233 | 0.199 | 0.196 | 0.224 | 0.522 | 0.518 | 0.424 | 0.475 | 0.454 | 0.513 | 0.766 | 0.594 | 0.659 | 0.585 | 1.01 | 1.21 | 0.974 | 1.05 | 1.06
NCI-H2126 | 0.51 | 0.65 | 0.483 | 0.591 | 0.537 | 0.515 | 0.514 | 0.456 | 0.527 | 0.491 | 0.753 | 0.719 | 0.638 | 0.712 | 0.633 | 1 | 1 | 0.911 | 0.964 | 0.872
